SMILES strings stand for the structures.

IC50 and ΔTm data for eight molecules are collected here from ChEMBL document CHEMBL1148453, “Parallel solution-phase synthesis of conformationally restricted congeners of pentamidine and evaluation of their antiplasmodial activities” (J Med Chem, 2004).

In one assay the test system is A549. The experiment in a line: Cytotoxicity against human lung cell carcinoma A549 cell line. Type of assay: functional, cell-based.
A further assay relates to Calf thymus DNA. The experiment in a line: Binding affinity for calf thymus DNA by measuring the change in midpoint of the thermal denaturation curves. Format: nucleic-acid assay. To be noted: Bos taurus.
The test system of another assay is Nucleic Acid. Briefly: Binding affinity for poly dA-dT DNA by measuring the change in midpoint of the thermal denaturation curves. Type of assay: nucleic-acid assay.
Assay [1] deals with Plasmodium falciparum. Briefly: microbe, parasite or virus in culture.
Description: In vitro antiparasitic activity against chloroquine-resistant Plasmodium falciparum Indochina I
Assay [2] has as its system Plasmodium falciparum. Briefly: microbe, parasite or virus in culture. This is another data set of the same source.
Description: In vitro antiparasitic activity against chloroquine-sensitive Plasmodium falciparum Haiti 135

The IC50 is the midpoint of a concentration-inhibition curve. A higher IC50 goes with a need for much substance. For `CCN(CC)CCCC(C)Nc1ccnc2cc(Cl)ccc12` (stereo unspecified) [CHLOROQUINE], half-maximal inhibition with A549 (IC50) required 40000 nM.
As a reminder, the ΔTm is the shift of the melting midpoint relative to a reference. As for `CN1CCN(C)C1c1ccc(N2CCN(c3ccc(C4N(C)CCN4C)cc3)CC2)cc1`, the ΔTm with Calf thymus DNA was determined as 2.4 °C; in the assay on Nucleic Acid it was 1.8 °C. The IC50 in the assay on Plasmodium falciparum [1] and in the assay on Plasmodium falciparum [2] was over 500 nM throughout.
On to `c1ccc(N2CCN(c3ccccc3)C2c2ccc(N3CCN(c4ccc(C5N(c6ccccc6)CCN5c5ccccc5)cc4)CC3)cc2)cc1`, for which the ΔTm in the assay with Calf thymus DNA is -1.2 °C; in the assay with Nucleic Acid it was 0 °C. Also, the IC50 in the assay on Plasmodium falciparum [1] and with Plasmodium falciparum [2] was over 500 nM in each case.
Turning to `CCOC(=O)c1ccc(N2CCN(c3ccc(C(=O)OCC)cc3)CC2)cc1`, the figures for the thermal shift (ΔTm) with Calf thymus DNA and in the assay on Nucleic Acid were 0.6 °C and 0 °C, respectively. Moreover, the IC50 in the assay on Plasmodium falciparum [1] and with Plasmodium falciparum [2] was over 500 nM throughout.
Take `NNC(=O)c1ccc(N2CCN(c3ccc(C(=O)NN)cc3)CC2)cc1`: the ΔTm in the assay with Calf thymus DNA was 0.1 °C; in the assay with Nucleic Acid it was 0 °C. Moreover, the IC50 in the assay with Plasmodium falciparum [1] and with Plasmodium falciparum [2] was over 500 nM each time.
In the case of `N=C(N)c1ccc(OCCCCCOc2ccc(C(=N)N)cc2)cc1` [PENTAMIDINE], the results for the half-inhibitory concentration (IC50) in the assay with A549, in the assay on Plasmodium falciparum [1] and in the assay on Plasmodium falciparum [2] were 40000 nM, 45 nM and 15 nM, respectively. Also, the ΔTm turned out to be 11.1 °C with Calf thymus DNA and 20.6 °C in the assay with Nucleic Acid.
The corresponding values for `N=C(N)c1ccc(N2CCCN(c3ccc(C(=N)N)cc3)CC2)cc1` are over 204000 nM, 100 nM, 150 nM, 15 °C and 23.1 °C.
With `c1cc(N2CCN(c3ccc(C4OCCO4)cc3)CC2)ccc1C1OCCO1`, the thermal shift (ΔTm) with Calf thymus DNA is -1.2 °C; with Nucleic Acid, 0.1 °C. Besides, the IC50 in the assay with Plasmodium falciparum [1] and in the assay with Plasmodium falciparum [2] was over 500 nM in each case.
